Where two headings read alike, the source gives them in different places.

The test addresses BRD4 (BD1+BD2) bromodomain (Homo sapiens (Human), UniProt O60885). Description: BRD4 binding inhibition (AlphaScreen, GST-BRD4 vs tetraacetylated histone H4 peptide). On the procedure:
A mixture comprising 100 nM GST-BRD4 (BD1+BD2) and 100 nM biotinylated acetyl-histone H4 (Lys5,8,12,16) peptide was prepared in assay buffer (50 mM HEPES pH 7.4; 25 mM NaCl; 0.05% Tween 20; 0.1% bovine serum albumin (BSA); 10 mM dithiothreitol (DTT)). After adding 6 μl of the mixture to the diluent, 6 μl of the pre-mixed AlphaLISA Glutathione Acceptor Beads and AlphaScreen Streptavidin Donor Beads (PerkinElmer, 10 μg/ml in assay buffer, respectively) was added thereto. The samples were incubated in the dark at room temperature for 30 minutes (shaking at 300 rpm). Then, the signals were measured with PerkinElmer Envision HTS Multilabel Reader using an alpha screen protocol of PerkinElmer. Each plate contained the negative control in which biotinylated acetyl-histone H4 peptide and GST-BRD4 (BD1+BD2) were replaced by assay buffer. In the case of using the software GraphPad Prism for calculation, the negative control point was input as a low standard value. The positive control (probe molecule l-BET762 containing protein/peptide mixture) proceeded to pipetting.
Background: Bead proximity is the source of the signal in Alpha formats.

Where [1] appears, read: GST-BRD4 (BD1+BD2) / biotinylated acetyl-histone H4 (Lys5,8,12,16) peptide, read-out: IC50, BRD4 binding inhibition.
[2] abbreviates: GST-BRD4 (BD1+BD2) vs biotinylated acetyl-histone H4 peptide, AlphaScreen, read-out: BRD4 IC50.

Consider `COc1ccc2nc(NCCCCNC(=O)[C@H](O)C(C)C)c3nnc(C)n3c2c1` [Example 125, 2-(R)-hydroxy-N-[4-(8-methoxy-1-methyl-[1,2,4]triazolo[4,3-a]quinoxaline-4-ylamino)-butyl]-3-methyl-butyramide], for which the IC50 by setting is: under setting [1], ≤ 50 nM; under setting [2], 31 nM.

Regarding `COc1ccc2nc(NCCCCNC(=O)[C@@H](O)C(C)C)c3nnc(C)n3c2c1` [Example 126, 2-(S)-hydroxy-N-[4-(8-methoxy-1-methyl-[1,2,4]triazolo[4,3-a]quinoxaline-4-ylamino)-butyl]-3-methyl-butyramide], the IC50 is ≤ 10 nM under setting [1] and 4 nM under setting [2].

For `COc1c(C)ccc2c1nc(NCCCCNC(=O)OC(C)(C)C)c1nnc(C)n12` [Example 130, {4-[6-methoxy-1,7-dimethyl-[1,2,4]triazolo[4,3-a]quinoxaline-4-ylamino]-butyl}-carbamic acid-tert-butylester], the IC50 is ≤ 50 nM under setting [1] and 36 nM under setting [2].

As for `COc1c(C)ccc2c1nc(NCCCCNC(=O)OCC(C)C)c1nnc(C)n12` [Example 134, [4-(6-methoxy-1,7-dimethyl-[1,2,4]triazolo[4,3-a]quinoxaline-4-ylamino)-butyl]-carbamic acid isobutylester], the IC50 runs as follows: under setting [1], ≤ 50 nM; under setting [2], 19 nM.

Regarding `COc1c(C)ccc2c1nc(NCCCCNC(=O)[C@H](O)C(C)C)c1nnc(C)n12` [Example 136, 2-(R)-hydroxy-N-[4-(6-methoxy-1,7-dimethyl-[1,2,4]triazolo[4,3-a]quinoxaline-4-ylamino)-butyl]-3-methyl-butyramide], the IC50 under setting [1] was ≤ 50 nM and the IC50 under setting [2] was 58 nM.

In the case of `COc1c(C)ccc2c1nc(NCCCCNC(=O)c1ccccc1F)c1nnc(C)n12` [Example 139, 2-fluoro-N-[4-(6-methoxy-1,7-dimethyl-[1,2,4]triazolo[4,3-a]quinoxaline-4-ylamino)-butyl]-benzamide], the IC50 reads like this: under setting [1], ≤ 50 nM; under setting [2], 40 nM.

Turning to `COc1cc(C(F)(F)F)cc2c1nc(NCCCCNC(=O)OC(C)C)c1nnc(C)n12` [Example 144, [4-(6-methoxy-1-methyl-8-trifluoromethyl-[1,2,4]triazolo[4,3-a]quinoxaline-4-ylamino)-butyl]-carbamic acid isopropylester], the IC50 reads like this: under setting [1], ≤ 50 nM; under setting [2], 38 nM.

Turning to `COc1cc(C(F)(F)F)cc2c1nc(NCCCCNC(=O)CC(C)C)c1nnc(C)n12` [Example 145, N-[4-(6-methoxy-1-methyl-8-trifluoromethyl-[1,2,4]triazolo[4,3-a]quinoxaline-4-ylamino)-butyl]-3-methyl-butyramide], the IC50 was ≤ 50 nM under setting [1] and 47 nM under setting [2].

`COc1cc2c(cc1C)nc(NCCCCNC(=O)[C@H](O)C(C)C)c1nnc(C)n12` [Example 152, 2-(R)-hydroxy-N-[4-(8-methoxy-1,7-dimethyl-[1,2,4]triazolo[4,3-a]quinoxaline-4-ylamino)-butyl]-3-methyl-butyramide]: the IC50 under setting [2] is 96 nM.

With `COc1cc2c(cc1C)nc(NCCCCNC(=O)c1ccccc1)c1nnc(C)n12` [Example 154, N-[4-(8-methoxy-1,7-dimethyl-[1,2,4]triazolo[4,3-a]quinoxaline-4-ylamino)-butyl]-benzamide], the 50% inhibitory concentration (IC50) under setting [2] was 78 nM.

As to `COc1cc2c(cc1C)nc(NCCCCNC(=O)c1ccccc1F)c1nnc(C)n12` [Example 155, 2-fluoro-N-[4-(8-methoxy-1,7-dimethyl-[1,2,4]triazolo[4,3-a]quinoxaline-4-ylamino)-butyl]-benzamide], under setting [2], the IC50 came out at 77 nM.

`Cc1nnc2c(NCCCCNC(=O)[C@H](O)C(C)C)nc3cc4c(cc3n12)OCCO4` [Example 182, 2-(R)-hydroxy-3-methyl-N-[4-(1-methyl-8,9-dihydro-7,10-dioxa-2,3,5,11b-tetraaza-cyclopenta[a]anthracene-4-ylamino)-butyl]-butyramide]: the IC50 was ≤ 50 nM under setting [1] and 22 nM under setting [2].

Usually IC50 stands for the concentration that inhibits the measured activity by half.
